Columns and labels:
Format in all cases: biochemical
[1] = tested on: HIV reverse transcriptase; assay: HIV reverse transcriptase activity with ADPRT, poly-ADP-ribosylated ADPRT and drug inhibitors of poly-ADP-ribosylation (FIG. 3, Example 4); conditions: for HIV reverse transcriptase activity: absence of ADPRT
Method: Reverse transcriptase activity assay conditions were as described in Example 1. NAD was added in a concentration of 62.5 μM and ADPRT in a concentration of 0.5 μM. Inhibitors 6-amino-1,2-benzopyrone (6-ABP) or 5-iodo-6-amino-1,2-benzopyrone (5-I-6-ABP) were added in concentrations 1000 μM, and 400 μM, respectively.
(§1) The medium (coctail) comprises 50 mM Tris-HCl pH 8.0; 60 mM KCl; 7 mM MgCl2; 40 mM DTT (dithiothreitol) 2 mM GSH (glutathione); 60 μg/ml whole histones/ml (Grade A, Sigma, St. Louis); poly (rA) oligo (dT)12-18 (Pharmacia, Piscataway, N. J.) and 50 μM M(0.1 μCalif.) [alfa ^32 P]TTP (ICN, Irvine, CA.) (Reverse transcriptase uses poly(rA) as template and the annealed oligo(dT) as primer for incorporating the labeled TTP).
(§2) The reverse polymerization was started by adding 0.02 μg of recombinant reverse transcriptase protein (ERC BioServices, Rockville, Md.) into 50 μl of coctail. The reaction mixture incubated at 25° C. for 5 minutes.
(§3) The reaction was stopped by adding 2 ml of ice cold 20% trichloroacetic acid and the precipitated nucleic acids were filtered onto glass fiber filters, dried with ethanol and their incorporated radioactivity counted in a liquid scintillation counter.
Using generally the reverse transcriptase procedure described in Example 1, three groups of samples were prepared. The first group contained the coctail described in the Example 1 containing poly (rA).cndot.oligo (dT)12-18 as a template and drugs 6-ABP or 5-I-6-ABP in concentration 1,000 μM and 400 μM, respectively, without the presence of ADPRT.
The second group contained the same ingredients as group 1 but ADPRT at a concentration to 0.5 μM was added to all samples.
The third group contained the same ingredients as group 2 but NAD in a concentration of 62.5 μM was added.

[2] = tested on: Human recombinant HIV reverse transcriptase; assay: Effect of unmodified and ADP-ribosylated ADPRT on HIV reverse transcriptase activity (FIG. 1, Example 2)
Method: The basic assay system for measurement of reverse transcriptase activity is described in Example 1. Human recombinant HIV reverse transcriptase used in the assay was obtained from HIV, ERC Bioservices. ADPRT used in this experiment is highly purified ADPRT protein prepared according to Anal. Biochem., 167:160 (1987). ADPRT was added to the reverse transcriptase assay system at various concentrations ranging from 0.01 to 1 μM. When the effect of […], pre-ADP-ribosylated ADPRT was assayed, the ADPRT enzyme was incubated with NAD and cofactors according to FEBS Letters, 212:73 (1987). The poly ADP-ribosylated ADPRT was isolated by centricon ultrafiltration and added in various concentration as shown in FIG. 1.
as §1, §2, §3
A small amount (300 μg) of ADPRT (0.5 μM) of final concentration was incubated with 100 mM NAD in 3 ml of 25 mM Tris-HCl (pH 7.4), 0.3% Tween 20 at 25° C. for three hours to render the protein auto-poly (ADP-ribosyl)ated, then concentrated to 3 mg/ml. Using generally the reverse transcriptase assay conditions as described in Example 1, the effect of automodified and unmodified ADPRT was monitored.

[3] = tested on: recombinant human HIV reverse transcriptase; assay: Activation of HIV reverse transcriptase by auto-(ADP-ribosylated) ADPRT (FIG. 2, Example 3); conditions: 0.5 μM ADPRT, no NAD
Method: Such abrogation and its time dependency is further illustrated in FIG. 2 wherein the activation of HIV reverse transcriptase by auto-ADP-ribosylated ADPRT is expressed as % of reverse transcriptase activity. The experimental conditions are as described in Example 3. […] Samples in columns 3-5 were incubated for time periods as indicated.
as §1, with “TTP). […]” for “TTP).”
The reaction was stopped by adding 2 ml of ice cold 20% trichloroacetic acid and the precipitated nucleic acids were filtered onto glass fiber filters, dried with ethanol and their incorporated radioactivity counted in a liquid scintillation counter. […]
The mixture was incubated at 25° C. for 5, 10 and 25 minutes, then the recombinant reverse transcriptase was added and the mixture was incubated for additional 5 minutes. The reaction was stopped, as described above, the precipitate was filtered and radioactivity counted.

Compound: Nc1ccc2oc(=O)ccc2c1 [6-ABP, 6-amino-1,2-benzopyrone]
- reverse transcriptase activity ([1]; 0.5 μM ADPRT + 62.5 μM NAD + 6-ABP 1000 μM): about 60%
- activity of reverse transcriptase ([1]; 0.5 μM ADPRT + 6-ABP 1000 μM): only very slightly
- activity of reverse transcriptase ([1]; 0.5 μM ADPRT + 6-ABP 1000 μM, 1000 µM): about 50%
- HIV reverse transcriptase activity ([1]; 6-ABP 1000 μM): did not affect

Compound: Nc1ccc2oc(=O)ccc2c1I [5-I-6-ABP, 5-iodo-6-amino-1,2-benzopyrone]
- activity of reverse transcriptase ([1]; 0.5 μM ADPRT + 62.5 μM NAD + 5-I-6-ABP 400 μM (column 9)): the same as the one seen in column 6
- activity of reverse transcriptase ([1]; 0.5 μM ADPRT + 5-I-6-ABP 400 μM): only very slightly
- activity of reverse transcriptase ([1]; 0.5 μM ADPRT + 5-I-6-ABP 400 μM, listed as 5-I-ABP, 400 µM): about 50%
- HIV reverse transcriptase activity ([1]; 5-I-6-ABP 400 μM): did not affect

Compound: adenosine diphosphoribosyl transferase [ADPRT]
- inhibition of reverse transcriptase activity ([2]; 0.05 μM pure ADPRT): 10%
- effect on reverse transcription (FIG. 1 summary) ([2]; 0.01 to 1 μM added to RT assay): inhibits RT in a concentration-dependent manner
- inhibition of reverse transcriptase ([2]; around 1-1.3 μM ADPRT): 75-80%
- activity of reverse transcriptase ([2]; around 1-1.3 μM ADPRT, control 100%): about 20%
- depression/inhibition of reverse transcriptase activity [3]: about 50%
- activity of reverse transcriptase ([1]; 0.5 μM pure ADPRT only (column 4)): about 50%

Source: patent US6316495A, “Method for inhibition of retroviral replication” (priority 1999, dated 2001)
